The nature of series [1]: plasma concentrations of circulating metabolites. The class given is in vivo. The following applies: after VBZ.
The target of series [2] is T1, human VMAT1 transporter (Homo sapiens, UniProt P54219).
T1 construct: expressed in transfected cells
T1 sequence (P54219 1-525): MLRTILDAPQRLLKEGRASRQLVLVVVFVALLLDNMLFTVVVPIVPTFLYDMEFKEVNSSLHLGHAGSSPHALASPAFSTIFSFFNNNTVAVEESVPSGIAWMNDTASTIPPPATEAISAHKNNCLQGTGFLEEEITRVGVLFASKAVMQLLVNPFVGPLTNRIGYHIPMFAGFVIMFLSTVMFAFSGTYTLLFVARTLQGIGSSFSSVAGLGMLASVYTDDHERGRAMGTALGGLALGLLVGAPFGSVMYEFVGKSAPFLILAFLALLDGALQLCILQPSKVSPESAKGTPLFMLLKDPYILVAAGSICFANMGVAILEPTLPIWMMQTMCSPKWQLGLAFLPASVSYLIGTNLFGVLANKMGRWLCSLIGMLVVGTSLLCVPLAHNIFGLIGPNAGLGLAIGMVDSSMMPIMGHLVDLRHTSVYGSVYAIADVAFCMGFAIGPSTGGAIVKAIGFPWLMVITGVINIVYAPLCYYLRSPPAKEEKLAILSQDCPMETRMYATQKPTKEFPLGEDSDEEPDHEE
Kind of series: uptake in cells expressing VMAT1. The class given is cell-based. The following applies: for inhibitory activity on uptake through VMAT1: concentrations up to 10 μM. The method, then:
None of the TBZ or VBZ metabolites had any affinity for the monoamine transporters DAT, SERT or NET. To complete the selectivity profile for VMAT2, the functional activity for the human VMAT1 transporter of these compounds was tested in cells expressing VMAT1.

A short description of series [3]: prolactin release, in vivo surrogate measure.
Series [4] can be described thus: ptosis, in vivo surrogate measure.
Series [5] is described as follows: case reports of hypersensitivity and dermatological reactions. It is filed as in vivo, human. The text has this:
A total of 17 cases of hypersensitivity reaction and/or dermatological findings and evidence for possible causal relationship with VBZ have been reported either spontaneously (6) or after solicitation (11). Of these 17 cases, 14 cases had both hypersensitivity reaction with dermatological findings (5 were serious and 9 were non-serious).
In these 14 cases, there was a reasonable temporal relationship between the initiation of the drug and the onset of events. In 1 case, both dechallenge and rechallenge was positive. In 2 cases, the events worsened when the drug was continued and the events resolved on discontinuation of VBZ. In 3 cases, dechallenge was considered as positive. In 7 cases, the event resolved or was resolving following discontinuation of drug and receiving appropriate treatment, implying a causal association. Additionally, among these 7 cases, there was 1 case in which the event re-occurred on readministration of the drug. In the remaining 1 case, the events started immediately after starting VBZ, the subject continued taking VBZ and the event continued; therefore, a causal association between the drug and the event could not be ruled out.
Of the 17 cases, there were 2 cases in which the patients experienced hypersensitivity reaction with evidence for a possible causal relationship with VBZ, but without dermatological findings. Both these cases were non-serious. In 1 case, dechallenge was positive and in another case, the event re-occurred with their second dose of drug, implying a causal association between the drug and the events.
Of the 17 cases, there was 1 case in which the patient experienced only dermatological findings with evidence for a possible causal relationship to VBZ, but without evidence of other hypersensitivity reaction. This case was non-serious and dechallenge was positive in this case. In view of the information reported in these 17 cases there appears to be a possible causal relationship between the events and administration of VBZ. […] 2017.
Based on the case reports received through 10 Oct.

On to `COc1cc2c(cc1OC)[C@H]1C[C@@H](OC(=O)[C@@H](N)C(C)(C)O)[C@H](CC(C)C)CN1CC2` [NBI-136110], for which the “plasma half-life of metabolite” value in series [1] was “half-lives similar to VBZ”. Further, in series [2], the “effect on uptake through VMAT1” value is “no significant effect on the uptake of monoamines through VMAT1” and the “inhibitory activity on uptake through VMAT1” value (“inhibitory activity” for short) is on record as “no significant inhibitory activity”.

`COc1cc2c(cc1OC)[C@H]1C[C@@H](O)[C@H](CC(C)C)CN1CC2` [R,R,R-DHTBZ, (2R, 3R,11bR)-3-isobutyl-9,10-dimethoxy-1,3,4,6,7,11b-hexahydro-2H-pyrido[2,1-a]isoquinolin-2-ol]: in series [1], the “plasma half-life of metabolite” value is listed as “half-lives similar to VBZ”. For the same compound, in series [2], the “effect on uptake through VMAT1” value is on record as “no significant effect on the uptake of monoamines through VMAT1” and the “inhibitory activity” value is given as “no significant inhibitory activity”. For the same compound, in series [3], the serum prolactin levels result was “induced a similar increase in serum prolactin levels as TBZ”. Also, the ptosis entry in series [4] is reported as “induced ptosis in an equivalent manner”.

In the case of `COc1cc2c(cc1OC)C1CC(=O)C(CC(C)C)CN1CC2` (stereo not shown) [TBZ, Tetrabenazine, reference compound], in series [2], the “effect on uptake through VMAT1” value is “no significant effect on the uptake of monoamines through VMAT1” and the “inhibitory activity” value is given as “no significant inhibitory activity”. In addition, the ptosis entry in series [4] is “induced ptosis in an equivalent manner”.

Consider `COc1cc2c(cc1OC)[C@H]1C[C@@H](OC(=O)[C@@H](N)C(C)C)[C@H](CC(C)C)CN1CC2` [Valbenazine, (S)-2-amino-3-methyl-butyric acid (2R, 3R,11bR)-3-isobutyl-9,10-dimethoxy-1,3,4,6,7,11b-hexahydro-2H-pyrido[2,1-a]isoquinolin-2-yl ester], for which, in series [5] (of the 14 cases), the “non-serious cases with hypersensitivity reaction and dermatological findings” value is on record as 9 cases; the “serious cases with hypersensitivity reaction and dermatological findings” value is given as 5 cases. In series [5] (of the 17 cases), the “cases with both hypersensitivity reaction with dermatological findings” value is given as 14 cases. Moreover, in series [5] (of the 17 cases, non-serious), the “cases of hypersensitivity reaction without dermatological findings” value turned out to be 2 cases and the “cases with only dermatological findings” value was 1 case. In series [5] (reported spontaneously (6) or after solicitation (11), through 10 Oct. 2017), the “cases of hypersensitivity reaction and/or dermatological findings with evidence for possible causal relationship” value is 17 cases. Moreover, the “severe hypersensitivity or dermatological reactions suggesting Stevens Johnson Syndrome, Toxic Epidermal Necrolysis, or Drug Rash with Eosinophilia and Systemic Symptoms” value in series [5] (through 10 Oct. 2017) was “no cases”. Further, in series [2], the “effect on uptake through VMAT1” value is “no significant effect on the uptake of monoamines through VMAT1” and the “inhibitory activity” value is on record as “no significant inhibitory activity”. Also, the ptosis result in series [4] is given as “induced ptosis in an equivalent manner”.

Take `COC(=O)[C@H]1[C@H]2C[C@@H]3c4[nH]c5cc(OC)ccc5c4CCN3C[C@H]2C[C@@H](OC(=O)c2cc(OC)c(OC)c(OC)c2)[C@@H]1OC` [reserpine, reference compound]: the “effect on uptake through VMAT1” value in series [2] is listed as “substantially inhibited uptake through VMAT1”.

(Values after patent US20210228566A1, “METHODS OF TREATING A NEUROLOGICAL OR PSYCHIATRIC DISORDER” (priority 2018, published 2021).)
